Reference: patent EP0351029B1, “Novel glucose isomerase enzymes and their use” (GENENCOR INTERNATIONAL, INC., priority 1988, dated 1990)

Tests used:
[1] = molecular target: T1, Actinoplanes missouriensis glucose isomerase (EcoAmi(DSM) GI), mutant G70S;A73S;G74T (Actinoplanes missouriensis, UniProt P12851, A73S/G70S/G74T); type: biochemical; details: D-xylose as substrate, coupled assay, 35°C, pH 7.5, 10mM MgSO4
T1 construct: made in house; host or cells: E. coli K514 (mutated pMa5-I / pMc5-I)
Procedure: (§1) In the D-Sorbitol Dehydrogenase Coupled Assay, enzymatic determination of D-xylulose was performed at 35°C as previously described (Kersters-Hilderson et al., Enzyme Microb. Technol. 9 (1987) 145) in 50mM triethanolamine, pH 7.5, 10mM MgSO4, and 0.1 M xylose, in the presence of ± 2 x 10^-8 M D-sorbitol dehydrogenase (L-iditol : NAD oxido-reductase, EC 1.1.14), and 0.15 nM NADH, except that the incubation buffer also included 1mM ethylenebis(oxyethylene-nitrilo)tetraacetic acid (EGTA). Glucose isomerase final concentration in this assay was ± 2.5 x 10^-3 mg/ml, and precisely determined as described above.
(§2) With glucose as a substrate GI activity can be assayed by the measurement of D-fructose produced during the isomerization reaction using the cysteine-carbazole method (CCM) which is based on the reaction of ketosugars with carbazole in acids to yield a purple product (Dische and Borenfreund, 1951).
(§3) • Spa = specific activity in micromoles of product (D-xylulose or D-fructose) per minute (unit), per mg of enzyme. • Vmax is expressed in units per mg of enzyme. • KM is the Michaelis constant, expressed in mM. • ND = not determined.

[2] = molecular target: T2, Actinoplanes missouriensis glucose isomerase (EcoAmi(DSM) GI), wildtype (WT-GI) (Actinoplanes missouriensis, UniProt P12851); assay: Catalytic parameters with D-xylose (D-sorbitol dehydrogenase coupled assay) or D-glucose (cysteine-carbazole method) as substrate; type: biochemical; details: 35°C, pH 7.5, 10mM MgSO4
T2 construct: made in house; host or cells: E. coli K514 (pMa5-I / pMc5-I)
Procedure: as §1, §2, §3

T1 sequence (P12851 whole entry G70S/A73S/G74T): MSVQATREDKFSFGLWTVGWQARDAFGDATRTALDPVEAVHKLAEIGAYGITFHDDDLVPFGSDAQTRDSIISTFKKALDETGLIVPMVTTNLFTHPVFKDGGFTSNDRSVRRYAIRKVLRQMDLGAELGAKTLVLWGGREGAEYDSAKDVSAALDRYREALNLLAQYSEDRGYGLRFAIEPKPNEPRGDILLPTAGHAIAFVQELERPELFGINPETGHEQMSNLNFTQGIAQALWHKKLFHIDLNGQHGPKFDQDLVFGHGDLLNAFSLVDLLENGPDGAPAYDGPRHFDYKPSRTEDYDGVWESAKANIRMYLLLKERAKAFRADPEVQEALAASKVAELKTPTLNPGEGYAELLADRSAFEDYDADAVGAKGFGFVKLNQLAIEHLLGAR
T2 sequence (P12851 whole entry): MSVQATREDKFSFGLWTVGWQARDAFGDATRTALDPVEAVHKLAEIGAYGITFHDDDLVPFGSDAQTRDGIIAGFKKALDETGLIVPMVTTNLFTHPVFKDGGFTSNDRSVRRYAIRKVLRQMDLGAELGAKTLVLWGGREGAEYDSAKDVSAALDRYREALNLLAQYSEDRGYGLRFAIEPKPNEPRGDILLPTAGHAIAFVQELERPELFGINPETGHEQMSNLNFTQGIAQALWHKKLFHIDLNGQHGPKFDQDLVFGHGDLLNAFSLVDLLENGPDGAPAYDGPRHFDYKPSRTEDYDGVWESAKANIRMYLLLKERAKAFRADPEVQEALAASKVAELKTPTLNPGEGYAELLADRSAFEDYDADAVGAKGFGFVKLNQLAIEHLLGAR

O=C[C@H](O)[C@@H](O)[C@H](O)CO [Xylose, D-xylose]
Km (Xylose) [1]: 5.3 mM | Vmax (Xylose) [1]: 24.9 units per mg of enzyme | Km [2]: 4.8 mM | Vmax (Xylose) [2]: 24.2 units per mg of enzyme
